Measured values reported in BindingDB's records for doi:10.1038/sj.bjp.0705856 (Schering-Plough Research Institute, 2004).
Values joined by “and” are separate entries in the source; they are usually repeats but may differ in a detail not shown here. Equal values may be shown once.

Target: T1, Sphingosine 1-phosphate receptor 4 (Homo sapiens, UniProt O95977)
T1 sequence (O95977 whole entry): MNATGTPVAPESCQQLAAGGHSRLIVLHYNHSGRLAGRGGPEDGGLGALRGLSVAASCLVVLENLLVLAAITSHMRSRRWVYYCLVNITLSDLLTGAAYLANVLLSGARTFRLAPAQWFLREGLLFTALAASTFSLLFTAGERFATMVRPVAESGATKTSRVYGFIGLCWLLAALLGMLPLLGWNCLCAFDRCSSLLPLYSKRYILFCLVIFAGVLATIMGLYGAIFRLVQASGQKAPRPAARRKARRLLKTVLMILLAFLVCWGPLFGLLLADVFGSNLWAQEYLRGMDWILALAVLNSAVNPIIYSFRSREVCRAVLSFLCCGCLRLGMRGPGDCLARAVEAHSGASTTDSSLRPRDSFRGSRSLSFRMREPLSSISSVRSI

Question: With CCCCCCCCCCCCC/C=C\C(O)C(N)COP(=O)(O)O (stereo unspecified) [{[(4Z)-2-amino-3-hydroxyoctadec-4-en-1-yl]oxy}phosphonic acid] as the compound, how does the Ki read?
Answer: The Ki was 21 nM and 64 nM and 27 nM and 32 nM and 28 nM and 33 nM.
